The kinase profiling compilation of Christmann-Franck et al. (2016)
Each block holds one molecule with its values, some of them ahead of it.

Tests used:
Assay in all cases: radiometric filter-binding kinase assay
CHEK1 (human) = CHEK1 (human) (UniProt O14757)
DYRK1A (human) = DYRK1A (human) (UniProt Q13627)
CaMK1 (human) = CaMK1 (human) (UniProt Q14012)
EPHB3 (human) = EPHB3 (human) (UniProt P54753)
CSNK2A1 (human) = CSNK2A1 (human) (UniProt P68400)
NTRK1 (human) = NTRK1 (human) (UniProt P04629)
Chain of NTRK1 (human) (P04629 whole entry, looked up): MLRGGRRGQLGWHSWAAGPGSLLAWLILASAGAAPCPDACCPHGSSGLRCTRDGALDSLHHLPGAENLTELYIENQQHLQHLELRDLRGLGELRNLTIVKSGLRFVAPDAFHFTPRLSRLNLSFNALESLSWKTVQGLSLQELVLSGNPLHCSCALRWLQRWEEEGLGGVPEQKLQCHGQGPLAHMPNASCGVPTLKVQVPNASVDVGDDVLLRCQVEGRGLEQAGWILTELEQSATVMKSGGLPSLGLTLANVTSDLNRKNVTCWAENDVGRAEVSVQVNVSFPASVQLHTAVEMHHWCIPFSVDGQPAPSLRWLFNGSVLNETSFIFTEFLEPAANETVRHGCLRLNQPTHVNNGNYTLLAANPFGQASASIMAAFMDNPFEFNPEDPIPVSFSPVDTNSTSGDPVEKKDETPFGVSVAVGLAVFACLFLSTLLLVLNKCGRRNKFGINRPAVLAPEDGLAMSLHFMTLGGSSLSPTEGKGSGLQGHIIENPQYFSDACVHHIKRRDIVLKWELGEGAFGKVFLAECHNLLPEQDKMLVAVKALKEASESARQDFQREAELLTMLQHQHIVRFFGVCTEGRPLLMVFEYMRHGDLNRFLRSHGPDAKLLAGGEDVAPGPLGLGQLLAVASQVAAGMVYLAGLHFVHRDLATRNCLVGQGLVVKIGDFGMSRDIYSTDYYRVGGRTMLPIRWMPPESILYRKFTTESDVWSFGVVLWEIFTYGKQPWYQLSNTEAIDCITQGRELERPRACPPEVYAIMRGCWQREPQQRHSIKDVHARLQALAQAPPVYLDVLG

MAP2K1 (human) = MAP2K1 (human) (UniProt Q02750)
MKNK1 (human) = MKNK1 (human) (UniProt Q9BUB5)
INSR (human) = INSR (human) (UniProt P06213)
PIM2 (human) = PIM2 (human) (UniProt Q9P1W9)
PHKG1 (human) = PHKG1 (human) (UniProt Q16816)
MARK3 (human) = MARK3 (human) (UniProt P27448)
PRKCZ (human) = PRKCZ (human) (UniProt Q05513)
PRKACA (human) = PRKACA (human) (UniProt P17612)
[1] = system: AKT2 (human), P31751 [S474D]
MAP3K9 (human) = MAP3K9 (human) (UniProt P80192)
Chain of MAP3K9 (human) (P80192 whole entry, looked up): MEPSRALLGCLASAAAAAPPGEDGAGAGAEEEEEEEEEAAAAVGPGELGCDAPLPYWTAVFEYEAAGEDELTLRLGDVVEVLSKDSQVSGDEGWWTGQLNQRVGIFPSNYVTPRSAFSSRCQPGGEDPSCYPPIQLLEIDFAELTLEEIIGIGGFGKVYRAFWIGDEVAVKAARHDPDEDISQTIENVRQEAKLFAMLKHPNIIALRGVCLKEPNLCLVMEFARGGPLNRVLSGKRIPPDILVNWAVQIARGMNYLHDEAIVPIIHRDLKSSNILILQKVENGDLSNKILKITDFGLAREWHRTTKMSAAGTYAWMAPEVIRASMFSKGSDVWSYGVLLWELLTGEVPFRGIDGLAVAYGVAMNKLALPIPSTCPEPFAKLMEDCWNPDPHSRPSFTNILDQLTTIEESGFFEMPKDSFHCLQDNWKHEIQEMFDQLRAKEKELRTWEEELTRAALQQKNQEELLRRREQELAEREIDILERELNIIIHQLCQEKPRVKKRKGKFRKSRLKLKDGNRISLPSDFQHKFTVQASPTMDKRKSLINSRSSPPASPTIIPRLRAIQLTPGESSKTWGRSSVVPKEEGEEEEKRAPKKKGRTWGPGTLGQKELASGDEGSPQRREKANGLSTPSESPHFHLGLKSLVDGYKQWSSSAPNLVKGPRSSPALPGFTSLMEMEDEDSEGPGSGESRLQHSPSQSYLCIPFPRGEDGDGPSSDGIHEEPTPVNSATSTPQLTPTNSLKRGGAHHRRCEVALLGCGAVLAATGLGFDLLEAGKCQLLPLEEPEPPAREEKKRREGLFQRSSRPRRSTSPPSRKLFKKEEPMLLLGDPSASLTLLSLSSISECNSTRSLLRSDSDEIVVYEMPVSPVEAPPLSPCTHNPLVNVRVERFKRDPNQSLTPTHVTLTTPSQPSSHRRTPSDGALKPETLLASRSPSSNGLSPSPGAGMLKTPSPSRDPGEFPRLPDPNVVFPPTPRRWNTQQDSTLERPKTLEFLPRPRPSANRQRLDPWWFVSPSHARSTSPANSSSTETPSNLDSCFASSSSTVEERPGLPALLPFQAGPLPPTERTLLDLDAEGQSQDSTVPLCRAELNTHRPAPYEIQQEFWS

PAK4 (human) = PAK4 (human) (UniProt O96013)
RIPK2 (human) = RIPK2 (human) (UniProt O43353)
MAPK10 (human) = MAPK10 (human) (UniProt P53779)
JAK2 JH1 JH2 (human) = JAK2 JH1 JH2 (human) (UniProt O60674)
Chain of JAK2 JH1 JH2 (human) (O60674 whole entry, looked up): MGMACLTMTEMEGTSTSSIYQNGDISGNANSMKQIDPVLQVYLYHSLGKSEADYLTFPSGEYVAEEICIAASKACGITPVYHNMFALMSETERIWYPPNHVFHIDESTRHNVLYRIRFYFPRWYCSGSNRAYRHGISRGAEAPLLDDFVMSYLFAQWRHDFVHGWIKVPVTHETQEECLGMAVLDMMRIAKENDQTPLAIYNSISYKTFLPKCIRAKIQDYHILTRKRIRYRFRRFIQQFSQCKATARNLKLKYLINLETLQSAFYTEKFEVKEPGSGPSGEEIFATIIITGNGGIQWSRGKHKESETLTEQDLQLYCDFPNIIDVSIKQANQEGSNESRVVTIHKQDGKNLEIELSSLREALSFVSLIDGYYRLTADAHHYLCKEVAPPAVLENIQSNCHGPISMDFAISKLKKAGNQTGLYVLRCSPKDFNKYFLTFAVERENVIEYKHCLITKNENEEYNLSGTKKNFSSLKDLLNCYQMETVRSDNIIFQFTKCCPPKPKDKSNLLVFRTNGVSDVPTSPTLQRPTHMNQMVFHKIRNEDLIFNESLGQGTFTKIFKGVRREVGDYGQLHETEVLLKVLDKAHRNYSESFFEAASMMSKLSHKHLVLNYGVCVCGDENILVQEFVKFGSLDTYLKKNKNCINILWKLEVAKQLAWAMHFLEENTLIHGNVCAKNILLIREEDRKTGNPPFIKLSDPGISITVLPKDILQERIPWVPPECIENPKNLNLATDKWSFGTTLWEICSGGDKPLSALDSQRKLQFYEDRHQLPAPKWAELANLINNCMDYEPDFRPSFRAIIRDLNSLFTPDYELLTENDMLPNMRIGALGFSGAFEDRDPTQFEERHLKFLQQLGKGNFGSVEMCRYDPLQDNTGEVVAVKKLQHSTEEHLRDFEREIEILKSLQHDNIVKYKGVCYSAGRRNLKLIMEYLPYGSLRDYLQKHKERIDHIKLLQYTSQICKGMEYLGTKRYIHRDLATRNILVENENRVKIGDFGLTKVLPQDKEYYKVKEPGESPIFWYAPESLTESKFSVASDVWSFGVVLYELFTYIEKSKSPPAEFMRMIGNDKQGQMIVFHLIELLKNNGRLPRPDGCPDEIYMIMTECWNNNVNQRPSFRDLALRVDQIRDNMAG

CAMKK2 (human) = CAMKK2 (human) (UniProt Q96RR4)
MST4 (human) = MST4 (human) (UniProt Q9P289)
Chain of MST4 (human) (Q9P289 whole entry, looked up): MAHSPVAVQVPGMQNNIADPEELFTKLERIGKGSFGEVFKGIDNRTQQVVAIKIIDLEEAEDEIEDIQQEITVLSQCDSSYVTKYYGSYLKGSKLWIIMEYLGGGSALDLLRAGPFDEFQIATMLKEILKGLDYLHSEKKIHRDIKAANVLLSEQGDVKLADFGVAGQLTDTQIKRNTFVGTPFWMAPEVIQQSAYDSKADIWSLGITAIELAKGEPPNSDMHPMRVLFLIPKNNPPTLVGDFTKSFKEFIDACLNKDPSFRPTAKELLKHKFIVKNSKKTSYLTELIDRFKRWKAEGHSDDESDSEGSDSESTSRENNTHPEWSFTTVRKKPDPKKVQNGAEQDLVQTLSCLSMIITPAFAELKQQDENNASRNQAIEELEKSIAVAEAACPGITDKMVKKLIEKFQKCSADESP

YES1 (human) = YES1 (human) (UniProt P07947)
INSRR (human) = INSRR (human) (UniProt P14616)
MARK4 (human) = MARK4 (human) (UniProt Q96L34)
SYK (human) = SYK (human) (UniProt P43405)
MAPK13 (human) = MAPK13 (human) (UniProt O15264)
MAP3K11 (human) = MAP3K11 (human) (UniProt Q16584)
LCK (mouse) = settings: accession and sequence are those of the human protein
IGF1R (human) = IGF1R (human) (UniProt P08069)
Chain of IGF1R (human) (P08069 whole entry, looked up): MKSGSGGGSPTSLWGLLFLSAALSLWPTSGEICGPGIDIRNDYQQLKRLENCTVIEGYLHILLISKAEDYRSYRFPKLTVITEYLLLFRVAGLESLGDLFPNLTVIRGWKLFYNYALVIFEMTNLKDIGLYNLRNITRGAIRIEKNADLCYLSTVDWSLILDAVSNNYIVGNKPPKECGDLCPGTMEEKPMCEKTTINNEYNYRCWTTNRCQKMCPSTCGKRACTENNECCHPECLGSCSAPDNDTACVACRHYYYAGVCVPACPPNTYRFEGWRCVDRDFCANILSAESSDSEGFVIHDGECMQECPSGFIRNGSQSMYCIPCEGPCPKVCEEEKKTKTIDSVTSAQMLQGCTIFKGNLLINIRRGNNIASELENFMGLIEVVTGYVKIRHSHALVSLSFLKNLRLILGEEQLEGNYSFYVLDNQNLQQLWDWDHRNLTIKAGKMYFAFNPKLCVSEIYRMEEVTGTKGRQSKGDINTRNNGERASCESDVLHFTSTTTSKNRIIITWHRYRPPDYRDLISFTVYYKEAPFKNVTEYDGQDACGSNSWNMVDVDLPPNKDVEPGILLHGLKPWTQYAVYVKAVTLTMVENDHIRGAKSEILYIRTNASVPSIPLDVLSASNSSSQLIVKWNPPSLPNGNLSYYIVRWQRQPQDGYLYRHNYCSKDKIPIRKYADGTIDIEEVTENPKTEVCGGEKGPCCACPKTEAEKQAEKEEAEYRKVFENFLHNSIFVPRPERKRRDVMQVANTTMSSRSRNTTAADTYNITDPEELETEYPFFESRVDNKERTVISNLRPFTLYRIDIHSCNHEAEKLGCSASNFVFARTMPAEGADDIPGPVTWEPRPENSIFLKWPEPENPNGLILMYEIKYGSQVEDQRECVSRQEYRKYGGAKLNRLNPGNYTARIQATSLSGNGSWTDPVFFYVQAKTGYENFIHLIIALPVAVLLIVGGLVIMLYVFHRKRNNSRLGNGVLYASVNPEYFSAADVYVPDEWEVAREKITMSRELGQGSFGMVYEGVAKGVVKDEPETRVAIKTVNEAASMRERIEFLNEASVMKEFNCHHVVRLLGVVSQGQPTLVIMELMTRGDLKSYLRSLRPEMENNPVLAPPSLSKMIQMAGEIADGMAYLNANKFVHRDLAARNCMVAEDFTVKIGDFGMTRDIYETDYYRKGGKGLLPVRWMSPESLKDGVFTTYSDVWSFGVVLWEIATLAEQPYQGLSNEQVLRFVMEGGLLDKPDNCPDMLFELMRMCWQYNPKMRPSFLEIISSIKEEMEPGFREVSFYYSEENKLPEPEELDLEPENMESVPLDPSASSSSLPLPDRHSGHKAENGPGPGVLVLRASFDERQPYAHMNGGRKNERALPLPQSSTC

NUAK1 (human) = NUAK1 (human) (UniProt O60285)
AURKB (human) = AURKB (human) (UniProt Q96GD4)
MINK1 (human) = MINK1 (human) (UniProt Q8N4C8)
PRKAA1 or PRKAA2 (rat) = settings: accession and sequence are those of the human protein
CDK2 CCNA2 (human) = CDK2 CCNA2 (human) (UniProt P20248+P24941)
SRC (human) = SRC (human) (UniProt P12931)

- residual activity (CHEK1 (human); compound 0.1 µM): 76%
- residual activity (CHEK1 (human); compound 1.0 µM): 93%
- residual activity (CHEK1 (human); compound 10.0 µM): 77%
- residual activity (DYRK1A (human); compound 0.1 µM): 112%
- residual activity (DYRK1A (human); compound 1.0 µM): 105%
- residual activity (DYRK1A (human); compound 10.0 µM): 87%
- residual activity (CaMK1 (human); compound 0.1 µM): 80%
- residual activity (CaMK1 (human); compound 1.0 µM): 99%
- residual activity (CaMK1 (human); compound 10.0 µM): 33%
- residual activity (EPHB3 (human); compound 0.1 µM): 99%
- residual activity (EPHB3 (human); compound 1.0 µM): 96%
- residual activity (EPHB3 (human); compound 10.0 µM): 51%
- residual activity (CSNK2A1 (human); compound 0.1 µM): 104%
- residual activity (CSNK2A1 (human); compound 1.0 µM): 115%
- residual activity (CSNK2A1 (human); compound 10.0 µM): 111%
- residual activity (NTRK1 (human); compound 0.1 µM): 64%
- residual activity (NTRK1 (human); compound 1.0 µM): 46%
- residual activity (NTRK1 (human); compound 10.0 µM): 13%
- residual activity (MAP2K1 (human); compound 0.1 µM): 85%
- residual activity (MAP2K1 (human); compound 1.0 µM): 76%
- residual activity (MAP2K1 (human); compound 10.0 µM): 56%
- residual activity (MKNK1 (human); compound 0.1 µM): 91%
- residual activity (MKNK1 (human); compound 1.0 µM): 115%
- residual activity (MKNK1 (human); compound 10.0 µM): 84%
- residual activity (INSR (human); compound 0.1 µM): 77%
- residual activity (INSR (human); compound 10.0 µM): 31%
- residual activity (PIM2 (human); compound 0.1 µM): 99%
- residual activity (PIM2 (human); compound 1.0 µM): 100%
- residual activity (PIM2 (human); compound 10.0 µM): 97%
- residual activity (PHKG1 (human); compound 1.0 µM): 104%
- residual activity (PHKG1 (human); compound 10.0 µM): 92%
- residual activity (MARK3 (human); compound 0.1 µM): 98%
- residual activity (MARK3 (human); compound 1.0 µM): 94%
- residual activity (MARK3 (human); compound 10.0 µM): 76%
- residual activity (PRKCZ (human); compound 0.1 µM): 90%
- residual activity (PRKCZ (human); compound 1.0 µM): 98%
- residual activity (PRKCZ (human); compound 10.0 µM): 81%
- residual activity (PRKACA (human); compound 0.1 µM): 89%
- residual activity (PRKACA (human); compound 1.0 µM): 101%
- residual activity (PRKACA (human); compound 10.0 µM): 97%
- residual activity ([1]; compound 0.1 µM): 80%
- residual activity ([1]; compound 1.0 µM): 93%
- residual activity ([1]; compound 10.0 µM): 71%
- residual activity (MAP3K9 (human); compound 0.1 µM): 104%
- residual activity (MAP3K9 (human); compound 1.0 µM): 89%
- residual activity (MAP3K9 (human); compound 10.0 µM): 27%
- residual activity (PAK4 (human); compound 0.1 µM): 93%
- residual activity (PAK4 (human); compound 1.0 µM): 85%
- residual activity (PAK4 (human); compound 10.0 µM): 42%
- residual activity (RIPK2 (human); compound 0.1 µM): 21%
- residual activity (RIPK2 (human); compound 1.0 µM): 5%
- residual activity (RIPK2 (human); compound 10.0 µM): 2%
- residual activity (MAPK10 (human); compound 0.1 µM): 84%
- residual activity (MAPK10 (human); compound 1.0 µM): 96%
- residual activity (MAPK10 (human); compound 10.0 µM): 86%
- residual activity (JAK2 JH1 JH2 (human); compound 0.1 µM): 90%
- residual activity (JAK2 JH1 JH2 (human); compound 1.0 µM): 103%
- residual activity (JAK2 JH1 JH2 (human); compound 10.0 µM): 83%
- residual activity (CAMKK2 (human); compound 0.1 µM): 86%
- residual activity (CAMKK2 (human); compound 1.0 µM): 109%
- residual activity (CAMKK2 (human); compound 10.0 µM): 80%
- residual activity (MST4 (human); compound 0.1 µM): 100%
- residual activity (MST4 (human); compound 1.0 µM): 73%
- residual activity (MST4 (human); compound 10.0 µM): 27%
- residual activity (YES1 (human); compound 0.1 µM): 20%
- residual activity (YES1 (human); compound 1.0 µM): 16%
- residual activity (YES1 (human); compound 10.0 µM): 13%
- residual activity (INSRR (human); compound 0.1 µM): 94%
- residual activity (INSRR (human); compound 1.0 µM): 101%
- residual activity (INSRR (human); compound 10.0 µM): 29%
- residual activity (MARK4 (human); compound 0.1 µM): 111%
- residual activity (MARK4 (human); compound 1.0 µM): 114%
- residual activity (MARK4 (human); compound 10.0 µM): 80%
- residual activity (SYK (human); compound 0.1 µM): 90%
- residual activity (SYK (human); compound 1.0 µM): 100%
- residual activity (SYK (human); compound 10.0 µM): 52%
- residual activity (MAPK13 (human); compound 0.1 µM): 88%
- residual activity (MAPK13 (human); compound 1.0 µM): 104%
- residual activity (MAPK13 (human); compound 10.0 µM): 80%
- residual activity (MAP3K11 (human); compound 0.1 µM): 87%
- residual activity (MAP3K11 (human); compound 1.0 µM): 65%
- residual activity (MAP3K11 (human); compound 10.0 µM): 28%
- residual activity (LCK (mouse); compound 0.1 µM): 22%
- residual activity (LCK (mouse); compound 10.0 µM): 9%
- residual activity (IGF1R (human); compound 0.1 µM): 95%
- residual activity (IGF1R (human); compound 1.0 µM): 93%
- residual activity (IGF1R (human); compound 10.0 µM): 63%
- residual activity (NUAK1 (human); compound 0.1 µM): 99%
- residual activity (NUAK1 (human); compound 1.0 µM): 82%
- residual activity (NUAK1 (human); compound 10.0 µM): 26%
- residual activity (AURKB (human); compound 0.1 µM): 96%
- residual activity (AURKB (human); compound 1.0 µM): 61%
- residual activity (AURKB (human); compound 10.0 µM): 13%
- residual activity (MINK1 (human); compound 0.1 µM): 90%
- residual activity (MINK1 (human); compound 1.0 µM): 91%
- residual activity (MINK1 (human); compound 10.0 µM): 57%
- residual activity (PRKAA1 or PRKAA2 (rat); compound 0.1 µM): 88%
- residual activity (PRKAA1 or PRKAA2 (rat); compound 1.0 µM): 101%
- residual activity (PRKAA1 or PRKAA2 (rat); compound 10.0 µM): 78%
- residual activity (CDK2 CCNA2 (human); compound 0.1 µM): 89%
- residual activity (CDK2 CCNA2 (human); compound 1.0 µM): 99%
- residual activity (CDK2 CCNA2 (human); compound 10.0 µM): 84%
SMILES: C=CC(=O)N1CCC[C@@H](n2nc(-c3ccc(Oc4ccccc4)cc3)c3c(N)ncnc32)C1

- residual activity (CHEK1 (human); compound 1.0 µM): 81%
- residual activity (CHEK1 (human); compound 10.0 µM): 100%
- residual activity (DYRK1A (human); compound 1.0 µM): 89%
- residual activity (DYRK1A (human); compound 10.0 µM): 83%
- residual activity (CaMK1 (human); compound 1.0 µM): 73%
- residual activity (EPHB3 (human); compound 1.0 µM): 116%
- residual activity (EPHB3 (human); compound 10.0 µM): 103%
- residual activity (CSNK2A1 (human); compound 1.0 µM): 97%
- residual activity (CSNK2A1 (human); compound 10.0 µM): 97%
- residual activity (NTRK1 (human); compound 1.0 µM): 50%
- residual activity (MAP2K1 (human); compound 1.0 µM): 78%
- residual activity (MAP2K1 (human); compound 10.0 µM): 96%
- residual activity (MKNK1 (human); compound 1.0 µM): 89%
- residual activity (MKNK1 (human); compound 10.0 µM): 90%
- residual activity (INSR (human); compound 1.0 µM): 96%
- residual activity (INSR (human); compound 10.0 µM): 96%
- residual activity (PIM2 (human); compound 1.0 µM): 91%
- residual activity (PIM2 (human); compound 10.0 µM): 96%
- residual activity (PHKG1 (human); compound 1.0 µM): 97%
- residual activity (PHKG1 (human); compound 10.0 µM): 92%
- residual activity (MARK3 (human); compound 1.0 µM): 93%
- residual activity (MARK3 (human); compound 10.0 µM): 102%
- residual activity (PRKACA (human); compound 10.0 µM): 92%
- residual activity ([1]; compound 10.0 µM): 100%
- residual activity (MAP3K9 (human); compound 1.0 µM): 91%
- residual activity (MAP3K9 (human); compound 10.0 µM): 89%
- residual activity (PAK4 (human); compound 1.0 µM): 94%
- residual activity (RIPK2 (human); compound 1.0 µM): 57%
- residual activity (RIPK2 (human); compound 10.0 µM): 38%
- residual activity (MAPK10 (human); compound 1.0 µM): 87%
- residual activity (MAPK10 (human); compound 10.0 µM): 77%
- residual activity (JAK2 JH1 JH2 (human); compound 1.0 µM): 26%
- residual activity (JAK2 JH1 JH2 (human); compound 10.0 µM): 31%
- residual activity (CAMKK2 (human); compound 1.0 µM): 69%
- residual activity (CAMKK2 (human); compound 10.0 µM): 59%
- residual activity (MST4 (human); compound 1.0 µM): 93%
- residual activity (MST4 (human); compound 10.0 µM): 83%
- residual activity (YES1 (human); compound 1.0 µM): 92%
- residual activity (YES1 (human); compound 10.0 µM): 93%
- residual activity (INSRR (human); compound 1.0 µM): 74%
- residual activity (INSRR (human); compound 10.0 µM): 77%
- residual activity (MARK4 (human); compound 1.0 µM): 100%
- residual activity (MARK4 (human); compound 10.0 µM): 86%
- residual activity (SYK (human); compound 1.0 µM): 105%
- residual activity (SYK (human); compound 10.0 µM): 76%
- residual activity (MAPK13 (human); compound 1.0 µM): 96%
- residual activity (MAPK13 (human); compound 10.0 µM): 95%
- residual activity (MAP3K11 (human); compound 1.0 µM): 81%
- residual activity (MAP3K11 (human); compound 10.0 µM): 83%
- residual activity (LCK (mouse); compound 1.0 µM): 78%
- residual activity (LCK (mouse); compound 10.0 µM): 98%
- residual activity (IGF1R (human); compound 1.0 µM): 89%
- residual activity (IGF1R (human); compound 10.0 µM): 67%
- residual activity (NUAK1 (human); compound 1.0 µM): 32%
- residual activity (NUAK1 (human); compound 10.0 µM): 16%
- residual activity (AURKB (human); compound 1.0 µM): 93%
- residual activity (AURKB (human); compound 10.0 µM): 82%
- residual activity (MINK1 (human); compound 1.0 µM): 72%
- residual activity (MINK1 (human); compound 10.0 µM): 55%
- residual activity (PRKAA1 or PRKAA2 (rat); compound 1.0 µM): 91%
- residual activity (PRKAA1 or PRKAA2 (rat); compound 10.0 µM): 89%
- residual activity (CDK2 CCNA2 (human); compound 1.0 µM): 90%
- residual activity (CDK2 CCNA2 (human); compound 10.0 µM): 85%
- residual activity (SRC (human); compound 1.0 µM): 83%
- residual activity (SRC (human); compound 10.0 µM): 130%
SMILES: CC(C)(C#N)c1ccc(N2C(=O)OCc3cnc4ccc(-c5cnc6ccccc6c5)cc4c32)cc1
